Test results reported in PubChem BioAssay (NCI).
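1) Cells in 96-well plates. 2) Compound, 48 h, 5 concentrations. 3) Linear interpolation between surrounding doses. 4) Unreached endpoint = highest concentration. TGI: concentration producing complete growth inhibition.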

Columns and labels:
Experiment in all cases: inhibition of tumour cell growth, NCI panel, 48 h
[1] = test system: HCT-15 colon
[2] = test system: SF-539 CNS
[3] = test system: SF-295 CNS
[4] = test system: MDA-N
[5] = test system: SK-MEL-2 melanoma
[6] = test system: PC-3 prostate
[7] = test system: HCC-2998 colon
[8] = test system: T-47D breast
[9] = test system: HOP-62 NSCLC
[10] = test system: OVCAR-8 ovarian
[11] = test system: COLO 205 colon
[12] = test system: SK-MEL-5 melanoma
[13] = test system: NCI-H23 lung
[14] = test system: A498 renal
[15] = test system: TK-10 renal
[16] = test system: KM12 colon
[17] = test system: IGROV1 ovarian
[18] = test system: CAKI-1 renal
[19] = test system: SN12C renal
[20] = test system: NCI/ADR-RES ovarian
[21] = test system: K-562 leukemia
[22] = test system: ACHN renal
[23] = test system: MOLT-4 leukemia
[24] = test system: MDA-MB-435
[25] = test system: NCI-H226 lung
[26] = test system: HT29 colon
[27] = test system: OVCAR-4 ovarian
[28] = test system: BT-549 breast
[29] = test system: EKVX NSCLC
[30] = test system: SF-268 CNS
[31] = test system: UO-31 renal
[32] = test system: NCI-H460 lung
[33] = test system: A549 NSCLC
[34] = test system: UACC-257 melanoma
[35] = test system: SNB-75 CNS
[36] = test system: UACC-62 melanoma
[37] = test system: OVCAR-5 ovarian
[38] = test system: U251 CNS
[39] = test system: 786-0 renal
[40] = test system: NCI-H522 lung
[41] = test system: HS 578T breast
[42] = test system: M14 melanoma
[43] = test system: MDA-MB-231 breast
[44] = test system: SK-OV-3 ovarian
[45] = test system: HCT-116 colon
[46] = test system: MCF7 breast
[47] = test system: DU-145 prostate
[48] = test system: CCRF-CEM leukemia
[49] = test system: MALME-3M melanoma
[50] = test system: RXF 393 renal
[51] = test system: SNB-19 CNS
[52] = test system: OVCAR-3 ovarian
[53] = test system: HOP-92 NSCLC
[54] = test system: RPMI-8226 leukemia
[55] = test system: SW-620 colon
[56] = test system: SK-MEL-28 melanoma

Measured: TGI

c1ccc(-c2cc(-c3cc(-c4ccccc4)n(-c4ccccc4)n3)nn2-c2ccccc2)cc1
not listed: [53] | [54] | [55] | [56]
> 100 µM: all other assays above

C[C@@H]1OC(=O)C[C@H]2CC(=O)N(CCc3cn(S(=O)(=O)C(F)(F)F)c4ccccc34)C[C@@H]21
not listed: [2] | [19] | [25]
> 100 µM: all other assays above
